In patent US10682359B2, “Inhibitors of glucose kinases, along with methods of their formation and use” (University of South Carolina, priority 2017, dated 2020):
Where two headings read alike, the source gives them in different places.

Assays:
[1] = system: T. cruzi infective form (amastigotes and trypomastigotes) (Tulahuen strain) in NIH-3T3 fibroblasts; assay: T. cruzi viability assay in NIH-3T3 fibroblasts; details: for viability at 80 µM / EC50: Trypanosoma cruzi, TULAHUEN, NIH3T3; for Trypanocidal activity class: class by % viability at 80 μM; for in vitro T. cruzi EC50 compared with benznidazole: infective form co-cultured in NIH-3T3 fibroblasts
[2] = target: T1, Trypanosoma cruzi glucokinase (TcGlcK) (Trypanosoma cruzi, UniProt Q4E4E1); assay: TcGlcK-HsΔG6PDH-diaphorase coupled assay, IC50 determination; type: biochemical
T1 construct: made in house
T1 sequence (Q4E4E1 1-376): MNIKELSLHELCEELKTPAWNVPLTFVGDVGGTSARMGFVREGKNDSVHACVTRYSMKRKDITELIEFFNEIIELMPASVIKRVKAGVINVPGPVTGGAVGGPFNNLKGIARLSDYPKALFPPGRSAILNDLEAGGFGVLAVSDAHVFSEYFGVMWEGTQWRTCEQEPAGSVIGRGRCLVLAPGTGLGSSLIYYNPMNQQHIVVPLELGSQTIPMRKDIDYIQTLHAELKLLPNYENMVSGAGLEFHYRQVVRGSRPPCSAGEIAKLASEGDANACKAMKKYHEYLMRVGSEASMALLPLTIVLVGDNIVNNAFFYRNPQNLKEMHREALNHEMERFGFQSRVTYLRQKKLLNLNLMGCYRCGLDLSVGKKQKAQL
Protocol: The TcGlcK assay was performed through its linking with the HsΔG6PDH-diaphorase enzyme-coupled assay system as schematically illustrated in FIG. 1. All of the compounds were tested in quadruplicate using the JANUS-MDT liquid handler equipped with a 384-tip head that was used to transfer 22 μL of a reagent mix [130 U/mL HsΔG6PDH, 100 mM NADP+, 1 kU/mL diaphorase, 10 mM resazurin, and 19 μM TcGlcK in a reaction buffer (see below)], 0.5 μL of 1 mM compounds in 100% DMSO (from the daughter plate, see above), and 2.5 μL of a substrate mix [4 mM D-glucose and 6 mM ATP in a reaction buffer] to a 384-well plate (total volume per well was 25 μL). The reaction buffer was 0.1 M triethanolamine (pH 8.5), 8.0 mM MgCl2, and 0.01% (v/v) Triton X-100. The final assay concentrations (FACs) were 0.5 U/mL HsΔG6PDH, 100 μM NADP+, 1 U/mL diaphorase, 20 μM resazurin, 2.5 nM TcGlcK, 20 μM compounds (from the daughter plate, see above), 0.4 mM D-glucose, 0.6 mM ATP, 0.1 M triethanolamine (pH 8.5), 8 mM MgCl2, and 0.01% (v/v) Triton X-100. […] The assay was carried out using 384-well, black, v-bottom microplates (Greiner Bio-One) with a final volume of 25 μL per well. Pipetting steps were performed with a liquid handler having a 384-tip head, JANUS-MDT from Perkin Elmer (Waltham, Mass.). Compounds that gave rise to TcGlcK enzyme activity in the presence of 20 μM compound (EA20) that results in less than 65%) were categorized as unconfirmed hits to proceed as candidates. The methodology is schematically illustrated in FIG. 2.
Determination of the IC50 values was performed by the TcGlcK—HsΔG6PDH—diaphorase coupled assay, in which reaction velocities were obtained at various concentrations of inhibitors. In 96-well plates, solutions of the inhibitors were prepared by serial dilution. Briefly, column 1 served as a control having an inhibitor concentration of zero; however, columns 2 through 12 on a given row had 11 different inhibitor concentrations from a serial dilution. Using the JANUS-MDT liquid handler with a 96-tip head, assay reactions were carried out in quadruplicate in a 384-well plate and the following components were transferred per well: 44 μL of a reagent mix [130 U/mL HsΔG6PDH, 100 mM NADP^+, 1 kU/mL diaphorase, 10 mM resazurin, and 19 μM TcGlcK in a reaction buffer (0.1 M triethanolamine (pH 8.5), 8.0 mM MgCl2, and 0.01% (v/v) Triton X-100)], 1 uL of 1 mM compound solutions in 100% DMSO, and 5 μL of a substrate mix [4 mM D-glucose and 6 mM ATP in the same reaction buffer]. The Envision microplate reader (PerkinElmer) was used to monitor the formation of resorufin in the fluorescence mode (λex=530 nm; λem=615 nm). Reaction velocities were measured and normalized by the controls. Values of IC50 were calculated using the GraphPad Prism 6.0 software from nonlinear regression of the data.

[3] = TcGlcK - inhibitor IC50, enzymatic coupled assay, read-out: IC50

Row | SMILES | viability at 80 µM [1] | other results
1 | COc1ccc([C@@H]2Oc3ccccc3C=C2[N+](=O)[O-])cc1OC [Compound 4c] | 0% | IC50 [2, 3]: 53.2 µM
2 | Nc1c(C(=O)c2cccc([N+](=O)O)c2)sc2nc(-c3cccnc3)ccc12 [Compound 9] | 52.7 ± 7.9% | –
3 | O=C1NC(=O)C(=Cc2ccc(O)c(O)c2)C(=O)N1 [Compound 2g] | 62.8 ± 11.6% | IC50 [2]: 4.2 µM
4 | O=C(O)C1Nc2c(I)cccc2C2C=CCC12 (stereo not drawn) [Compound 8] | 44.3 ± 5.1% | –
5 | COc1ccc(S(=O)(=O)Nc2cccc(SC)c2)cc1F [Compound 1b] | 0% | –
6 | Cc1cc(N2CCOCC2)ccc1/C=C1/C(=O)NC(=O)N(c2ccc3c(c2)OCO3)C1=O [Compound 2b] | 57 ± 2.8% | IC50 [2]: 1.1 µM
7 | Cc1ccc(-n2nc(C)c3c2OC(N)=C(C#N)[C@H]3c2ccoc2)cc1 [Compound 5c] | 80.6 ± 3.9% | –
8 | COc1ccc(Br)cc1[C@H]1C(C#N)=C(N)Oc2c1c(C)nn2-c1ccccc1 [Compound 5a] | 0% | IC50 [2, 3]: 18.8 µM
9 | O=S(=O)(Nc1ccc(O)cc1)c1cc(Cl)ccc1Cl [Compound 1m] | 0.6 ± 2.9% | –
10 | COc1ccc(NS(=O)(=O)c2ccc(Cl)c(C)c2Cl)cc1 [Compound 1d] | 0% | –
11 | Cc1cc2c(c(O)c1-c1c(C)cc3c(c1O)C(=CNc1ccc(S(=O)(=O)NC(=N)N)cc1)C(=O)C(O)=C3C(C)C)C(=CNc1ccc(S(=O)(=O)NC(=N)N)cc1)C(=O)C(O)=C2C(C)C [Compound 6a] | 0% | EC50 [1]: 8.62 ± 0.493 µM; Trypanocidal activity class [1]: active; IC50 [2, 3]: 13.2 µM
12 | CCOc1ccc(S(=O)(=O)Nc2c(F)cccc2F)cc1Cl [Compound 1i] | 4.9 ± 4.7% | –
13 | Cc1nn(-c2ccccc2)c2c1[C@@H](c1ccc(F)cc1)C(C#N)=C(N)O2 [Compound 5b] | 87.1 ± 3.3% | IC50 [2, 3]: 17.1 µM
14 | COc1ccc(S(=O)(=O)Nc2ccccc2)cc1F [Compound 1l] | 34.6 ± 4.3% | –
15 | COc1ccc(S(=O)(=O)Nc2cccc(Br)c2)c(Cl)c1Cl [Compound 1a] | 0% | EC50 [1]: 13.3 ± 0.3 µM; Trypanocidal activity class [1]: active; IC50 [2, 3]: 7.2 µM
16 | COc1ccc(Br)cc1/C=C1/C(=O)NC(=O)N(CCC2=CCCCC2)C1=O [Compound 2d] | 88.7 ± 15.1% | IC50 [2]: 13.7 µM
17 | CCOc1ccc(S(=O)(=O)Nc2cccc(Cl)c2C)cc1C [Compound 1j] | 0% | –
18 | CCOc1ccc([C@@H]2Oc3ccccc3C=C2[N+](=O)[O-])cc1OCC [Compound 4d] | 0% | IC50 [2, 3]: 69.1 µM
19 | O=C1NC(=O)C(=Cc2ccc3c(c2)OCO3)C(=O)N1 [Compound 2h] | 81.2 ± 13.7% | IC50 [2]: 8.7 µM
20 | Cc1cc2c(c(O)c1-c1c(C)cc3c(c1O)/C(=C/Nc1c(O)cc(S(=O)(=O)O)c4ccccc14)C(=O)C(O)=C3C(C)C)/C(=C/Nc1c(O)ccc3c(S(=O)(=O)O)cccc13)C(=O)C(O)=C2C(C)C [Compound 6c] | 20.4 ± 10.3% | IC50 [2, 3]: 30.2 µM

Row | SMILES | viability at 80 µM [1] | other results
21 | CCOc1ccc([C@@H]2Oc3ccc(Br)cc3C=C2[N+](=O)[O-])cc1OC [Compound 4b] | 0% | EC50 [1]: 2.17 ± 0.045 µM; Trypanocidal activity class [1]: active; in vitro T. cruzi EC50 compared with benznidazole [1]: very similar in vitro T. cruzi EC50 values to that of benznidazole; IC50 [2, 3]: 6.5 µM
22 | O=C1NC(=O)C(=Cc2ccc(N3CCOCC3)cc2)C(=O)N1 [Compound 2e] | 88 ± 9.4% | IC50 [2]: 1.7 µM
23 | COc1ccc(F)cc1S(=O)(=O)Nc1ccc(Cl)cc1 [Compound 1n] | 2.4 ± 7.4% | –
24 | O=[N+]([O-])C1=Cc2c(ccc3ccccc23)O[C@H]1c1ccc2c(c1)OCO2 [Compound 4e] | 0% | –
25 | COc1cc(S(=O)(=O)Nc2cccc(Cl)c2C)c(C)cc1C [Compound 1c] | 0% | –
26 | Cc1cc2c(c(O)c1-c1c(C)cc3c(c1O)/C(=C/Nc1cccc4c(N)cccc14)C(=O)C(O)=C3C(C)C)/C(=C/Nc1cccc3c(N)cccc13)C(=O)C(O)=C2C(C)C [Compound 6b] | 1.7 ± 2.7% | IC50 [2, 3]: 16.5 µM
27 | Cc1cc2c(c(O)c1-c1c(C)cc3c(c1O)/C(=C/Nc1ccc(Cc4ccc(N)cc4)cc1)C(=O)C(O)=C3C(C)C)/C(=C/Nc1ccc(Cc3ccc(N)cc3)cc1)C(=O)C(O)=C2C(C)C [Compound 6d] | 63.3 ± 0.4% | IC50 [2, 3]: 61.6 µM
28 | O=C1C(=Cc2ccco2)C(=O)N(c2ccccc2)C(=O)N1c1ccccc1 [Compound 2a] | 66.5 ± 22.3% | IC50 [2]: 0.6 µM
29 | COc1ccc(S(=O)(=O)Nc2cc(Cl)ccc2Cl)c(C)c1C [Compound 1k] | 0% | –
30 | COc1ccc(S(=O)(=O)Nc2ccc(Br)cc2F)cc1Cl [Compound 1g] | 0% | –
31 | Cc1nn(-c2cccc(Cl)c2)c2c1[C@@H](c1cc([N+](=O)[O-])ccc1Cl)C(C#N)=C(N)O2 [Compound 5d] | 0% | –
32 | CCOc1cc(S(=O)(=O)Nc2ccc(Cl)cc2)ccc1F [Compound 1h] | 0% | –
33 | N#Cc1ccc(-c2cccnc2)nc1SCC(=O)O [Compound 11] | 86.5 ± 0.9% | –
34 | COc1ccc(S(=O)(=O)Nc2ccc3ccccc3c2)cc1Cl [Compound 1f] | 0% | –
35 | CCOc1ccc([C@@H]2Oc3c(Cl)cc(Cl)cc3C=C2[N+](=O)[O-])cc1OCC [Compound 4a] | 0% | EC50 [1]: 2.98 ± 0.227 µM; Trypanocidal activity class [1]: active; in vitro T. cruzi EC50 compared with benznidazole [1]: very similar in vitro T. cruzi EC50 values to that of benznidazole; IC50 [2, 3]: 4.8 µM
36 | O=C1NC(=O)C(=Cc2ccc(Br)s2)C(=O)N1 [Compound 2f] | 74.2 ± 5.3% | IC50 [2]: 2.4 µM
37 | CN1C(=O)C(=Cc2ccc(N(C)C)cc2)C(=O)N(C)C1=O [Compound 2c] | 79 ± 4% | IC50 [2]: 5.5 µM
38 | COc1ccc(C(=O)Nc2sc3c(c2C(N)=O)CCCCC3)cc1OC [Compound 10] | 50.5 ± 3.4% | –
39 | COc1ccc(S(=O)(=O)Nc2ccc(F)c(F)c2)cc1I [Compound 1e] | 0% | –
40 | c1ccc([C@@H]2CCCN2)nc1 [Compound 7] | 84.3 ± 0.5% | –
